The experiment deals with MV-4-11 cells. Nature of the experiment: Gene expression microarray analysis (Affymetrix PrimeView) and GSEA. Type of experiment: cell-based, human. Also noted: RFU PODN (11730768_x_at) / Fold change /veh PODN (11730768_x_at) / RFU LINC00158 (11744669_a_at) / Fold change /veh LINC00158 (11744669_a_at) / RFU DUSP10 (11751237_a_at) / Fold change /veh DUSP10 (11751237_a_at) / RFU ID3 (11757404_x_at) / Fold change /veh ID3 (11757404_x_at) / RFU PLEKHG5 (11737974_s_at) / Fold change /veh PLEKHG5 (11737974_s_at) / RFU LRRC4B (11730491_at) / Fold change /veh LRRC4B (11730491_at) / RFU GIMAP4 (11747438_a_at) / Fold change /veh GIMAP4 (11747438_a_at) / RFU KRT8 (11758183_x_at) / Fold change /veh KRT8 (11758183_x_at) / RFU CNN1 (11734310_a_at) / Fold change /veh CNN1 (11734310_a_at) / RFU VPS37D (11726825_at) / Fold change /veh VPS37D (11726825_at) / RFU C10orf10 (11716522_x_at) / Fold change /veh C10orf10 (11716522_x_at) / RFU KIR2DL2 /// KIR2DL4 /// KIR2DL5A /// KIR2DL5B /// KIR2DS1 /// KIR2DS2 /// KIR2DS3 /// KIR2DS4 /// KIR3DL3 /// KIR3DL3 /// KIR3DS1 (11738374_at) / Fold change /veh KIR2DL2 /// KIR2DL4 /// KIR2DL5A /// KIR2DL5B /// KIR2DS1 /// KIR2DS2 /// KIR2DS3 /// KIR2DS4 /// KIR3DL3 /// KIR3DL3 /// KIR3DS1 (11738374_at) / RFU C1QL1 (11718748_at) / Fold change /veh C1QL1 (11718748_at) / RFU TMPRSS4 (11747572_a_at) / Fold change /veh TMPRSS4 (11747572_a_at) / RFU HAMP (11756126_x_at) / Fold change /veh HAMP (11756126_x_at) / RFU RNFT2 (11725882_a_at) / Fold change /veh RNFT2 (11725882_a_at) / RFU NR4A2 (11747474_a_at) / Fold change /veh NR4A2 (11747474_a_at) / RFU ABCC12 (11746883_a_at) / Fold change /veh ABCC12 (11746883_a_at) / RFU TMEM136 (11760407_x_at) / Fold change /veh TMEM136 (11760407_x_at) / RFU CLDN22 /// WWC2 (11732394_at) / Fold change /veh CLDN22 /// WWC2 (11732394_at) / RFU HLA-DPB1 (11760878_x_at) / Fold change /veh HLA-DPB1 (11760878_x_at) / RFU SPINT1 (11716480_a_at) / Fold change /veh SPINT1 (11716480_a_at) / RFU GAP43 (11754022_s_at) / Fold change /veh GAP43 (11754022_s_at) / RFU A4GNT (11735810_at) / Fold change /veh A4GNT (11735810_at) / RFU PRB3 (11715151_x_at) / Fold change /veh PRB3 (11715151_x_at) / RFU TUBB4B (11761932_at) / Fold change /veh TUBB4B (11761932_at) / RFU CAPN14 (11732068_a_at) / Fold change /veh CAPN14 (11732068_a_at) / RFU TMCC2 (11721928_a_at) / Fold change /veh TMCC2 (11721928_a_at) / RFU IRGQ (11745062_a_at) / Fold change /veh IRGQ (11745062_a_at) / RFU FAM174B (11720279_a_at) / Fold change /veh FAM174B (11720279_a_at) / RFU TMPRSS4 (11748680_a_at) / Fold change /veh TMPRSS4 (11748680_a_at) / RFU FAM212B (11763350_a_at) / Fold change /veh FAM212B (11763350_a_at) / RFU PLEKHG5 (11743358_a_at) / Fold change /veh PLEKHG5 (11743358_a_at) / RFU ZSCAN30 (11745921_a_at) / Fold change /veh ZSCAN30 (11745921_a_at) / RFU CMKLR1 (11741424_a_at) / Fold change /veh CMKLR1 (11741424_a_at) / RFU LOC101060620 /// MAPK8IP1 (11723275_at) / Fold change /veh LOC101060620 /// MAPK8IP1 (11723275_at) / RFU SPTSSB (11747773_x_at) / Fold change /veh SPTSSB (11747773_x_at) / RFU PRSS12 (11739890_at) / Fold change /veh PRSS12 (11739890_at) / RFU BIN1 (11741810_x_at) / Fold change /veh BIN1 (11741810_x_at) / RFU WNT11 (11732464_a_at) / Fold change /veh WNT11 (11732464_a_at) / RFU C10orf10 (11716521_a_at) / Fold change /veh C10orf10 (11716521_a_at) / RFU C5orf56 (11738089_at) / Fold change /veh C5orf56 (11738089_at) / RFU CYB561 (11721691_x_at) / Fold change /veh CYB561 (11721691_x_at) / RFU ANKRD19P (11752326_a_at) / Fold change /veh ANKRD19P (11752326_a_at) / RFU OR2T12 /// OR2T33 /// OR2T8 (11738714_s_at) / Fold change /veh OR2T12 /// OR2T33 /// OR2T8 (11738714_s_at) / RFU VCAN (11748164_a_at) / Fold change /veh VCAN (11748164_a_at) / RFU JSRP1 (11732532_at) / Fold change /veh JSRP1 (11732532_at) / RFU KRTAP10-11 (11738290_x_at) / Fold change /veh KRTAP10-11 (11738290_x_at) / RFU MYO3A (11730013_a_at) / Fold change /veh MYO3A (11730013_a_at) / RFU EBF3 (11725865_a_at) / Fold change /veh EBF3 (11725865_a_at) / RFU CAMK2N1 (11719241_x_at) / Fold change /veh CAMK2N1 (11719241_x_at) / RFU C5orf56 (11738088_a_at) / Fold change /veh C5orf56 (11738088_a_at) / RFU OLFML3 (11715873_a_at) / Fold change /veh OLFML3 (11715873_a_at) / RFU LOC100653217 /// NTM (11731650_a_at) / Fold change /veh LOC100653217 /// NTM (11731650_a_at) / RFU MAPK11 (11762145_a_at) / Fold change /veh MAPK11 (11762145_a_at) / RFU FIZ1 (11724087_x_at) / Fold change /veh FIZ1 (11724087_x_at) / RFU OASL (11726364_x_at) / Fold change /veh OASL (11726364_x_at) / RFU SOX15 (11748057_x_at) / Fold change /veh SOX15 (11748057_x_at) / RFU CD79A (11719716_a_at) / Fold change /veh CD79A (11719716_a_at) / RFU HIST1H1D (11736915_at) / Fold change /veh HIST1H1D (11736915_at) / RFU CASKIN2 (11723855_a_at) / Fold change /veh CASKIN2 (11723855_a_at) / RFU LOC730098 (11760151_x_at) / Fold change /veh LOC730098 (11760151_x_at) / RFU OR4N2 (11742367_at) / Fold change /veh OR4N2 (11742367_at) / RFU PRRT2 (11749266_a_at) / Fold change /veh PRRT2 (11749266_a_at) / RFU SNX32 (11753110_a_at) / Fold change /veh SNX32 (11753110_a_at) / RFU CDHR5 (11726645_a_at) / Fold change /veh CDHR5 (11726645_a_at) / RFU RCAN1 (11760418_a_at) / Fold change /veh RCAN1 (11760418_a_at) / RFU FAM167A (11723789_a_at) / Fold change /veh FAM167A (11723789_a_at) / RFU FAM26E (11764081_at) / Fold change /veh FAM26E (11764081_at) / RFU ISYNA1 (11749810_s_at) / Fold change /veh ISYNA1 (11749810_s_at) / RFU ACY1 (11761880_at) / Fold change /veh ACY1 (11761880_at) / RFU 11764098_at / Fold change /veh 11764098_at / RFU SAMD14 (11745864_x_at) / Fold change /veh SAMD14 (11745864_x_at) / RFU NPB (11741838_a_at) / Fold change /veh NPB (11741838_a_at) / RFU TMPRSS6 (11731388_a_at) / Fold change /veh TMPRSS6 (11731388_a_at) / RFU KRTAP10-2 (11738614_at) / Fold change /veh KRTAP10-2 (11738614_at) / RFU ARHGAP8 /// PRR5-ARHGAP8 (11727945_x_at) / Fold change /veh ARHGAP8 /// PRR5-ARHGAP8 (11727945_x_at) / RFU KRTAP5-7 /// NADSYN1 (11734609_at) / Fold change /veh KRTAP5-7 /// NADSYN1 (11734609_at) / RFU RASL12 (11751679_a_at) / Fold change /veh RASL12 (11751679_a_at) / RFU CDKN2B (11736163_a_at) / Fold change /veh CDKN2B (11736163_a_at) / RFU PRF1 (11729649_at) / Fold change /veh PRF1 (11729649_at) / RFU, ZNF638 /// ZNF638-IT1 / Fold change vs veh, ZNF638 /// ZNF638-IT1 / RFU, PANK3 / Fold change vs veh, PANK3 / RFU, SH3YL1 / Fold change vs veh, SH3YL1 / RFU, ZEB2 / Fold change vs veh, ZEB2 / RFU, NRIP1 / Fold change vs veh, NRIP1 / RFU, PTTG1IP / Fold change vs veh, PTTG1IP / RFU, CAPN2 / Fold change vs veh, CAPN2 / RFU, MED14 / Fold change vs veh, MED14 / RFU, SNORA58 / Fold change vs veh, SNORA58 / RFU, C1orf63 / Fold change vs veh, C1orf63 / RFU, LRRFIP1 / Fold change vs veh, LRRFIP1 / RFU, NDUFAF7 / Fold change vs veh, NDUFAF7 / RFU, SLC12A2 / Fold change vs veh, SLC12A2 / RFU, IBTK / Fold change vs veh, IBTK / RFU, ESF1 / Fold change vs veh, ESF1 / Fold change vs veh, TMEM50B / RFU, TAOK1 / Fold change vs veh, TAOK1 / RFU, ACBD3 / Fold change vs veh, ACBD3 / RFU, TMA16 / Fold change vs veh, TMA16 / RFU, RWDD3 / Fold change vs veh, RWDD3 / RFU, BCAT1 / Fold change vs veh, BCAT1 / RFU, EDEM3 / Fold change vs veh, EDEM3 / RFU, TMEM33 / Fold change vs veh, TMEM33 / RFU, WDR75 / Fold change vs veh, WDR75 / RFU, AHCTF1 / Fold change vs veh, AHCTF1 / RFU, TFRC / Fold change vs veh, TFRC / RFU, ZDHHC17 / Fold change vs veh, ZDHHC17 / RFU, NOM1 / Fold change vs veh, NOM1 / RFU, ARL8B / Fold change vs veh, ARL8B / RFU, ZBTB11 / Fold change vs veh, ZBTB11 / RFU, TAMM41 / Fold change vs veh, TAMM41 / RFU, KIAA1704 /// LOC100996395 / Fold change vs veh, KIAA1704 /// LOC100996395 / RFU, ING1 / Fold change vs veh, ING1 / RFU, TRMT61B / Fold change vs veh, TRMT61B / RFU, FUBP3 / Fold change vs veh, FUBP3 / RFU, TP53 / Fold change vs veh, TP53 / RFU, TNKS2 / Fold change vs veh, TNKS2 / RFU, ZFP14 / Fold change vs veh, ZFP14 / RFU, ACTR2 / Fold change vs veh, ACTR2 / RFU, PPP3R1 / Fold change vs veh, PPP3R1 / RFU, PIK3R1 / Fold change vs veh, PIK3R1 / RFU, HNRNPA1 / Fold change vs veh, HNRNPA1 / RFU, RNF170 / Fold change vs veh, RNF170 / RFU, ZNF28 / Fold change vs veh, ZNF28 / RFU, RNGTT / Fold change vs veh, RNGTT / RFU, OGT / Fold change vs veh, OGT / RFU, BRD1 / Fold change vs veh, BRD1 / RFU, MARS / Fold change vs veh, MARS / RFU, ZNF655 / Fold change vs veh, ZNF655 / RFU, FAHD1 / Fold change vs veh, FAHD1 / RFU, BDP1 / Fold change vs veh, BDP1 / RFU, LRRCC1 / Fold change vs veh, LRRCC1 / RFU, ARID1A / Fold change vs veh, ARID1A / RFU, ZNF146 / Fold change vs veh, ZNF146 / RFU, ZNF330 / Fold change vs veh, ZNF330 / RFU, GPN3 / Fold change vs veh, GPN3 / RFU, C9orf123 / Fold change vs veh, C9orf123 / RFU, N4BP2L2 / Fold change vs veh, N4BP2L2 / RFU, ARFIP1 / Fold change vs veh, ARFIP1 / RFU, FAM179B / Fold change vs veh, FAM179B / RFU, BCL10 / Fold change vs veh, BCL10 / RFU, UHRF1BP1L / Fold change vs veh, UHRF1BP1L / RFU, BET1 / Fold change vs veh, BET1 / RFU, CNOT2 / Fold change vs veh, CNOT2 / RFU, ZNF268 / Fold change vs veh, ZNF268 / Fold change vs veh, ZNF507 / RFU, DGCR2 / Fold change vs veh, DGCR2 / RFU, WDSUB1 / Fold change vs veh, WDSUB1 / Fold change vs veh, HSP90B1 /// MIR3652 / RFU, ADSS / Fold change vs veh, ADSS / RFU, GK / Fold change vs veh, GK / RFU, ZNF148 / Fold change vs veh, ZNF148 / RFU, TAF9 / Fold change vs veh, TAF9 / RFU, SLC1A5 / Fold change vs veh, SLC1A5 / RFU, SLMO2 / Fold change vs veh, SLMO2 / RFU, ABCC4 / Fold change vs veh, ABCC4 / RFU, LOC101060439 /// RAP1B / Fold change vs veh, LOC101060439 /// RAP1B / RFU, RFX7 / Fold change vs veh, RFX7 / RFU, GTPBP10 / Fold change vs veh, GTPBP10 / RFU, CNEP1R1 / Fold change vs veh, CNEP1R1 / RFU, BIVM-ERCC5 /// ERCC5 / Fold change vs veh, BIVM-ERCC5 /// ERCC5 / RFU, ILF3 / Fold change vs veh, ILF3 / RFU 11762660_at / Fold change /veh 11762660_at / RFU VCAN (11757783_s_at) / Fold change /veh VCAN (11757783_s_at) / RFU DDX43 (11728927_at) / Fold change /veh DDX43 (11728927_at) / RFU KRT8 (11758188_x_at) / Fold change /veh KRT8 (11758188_x_at) / RFU NKD1 (11759106_at) / Fold change /veh NKD1 (11759106_at) / RFU SRD5A1 (11742802_a_at) / Fold change /veh SRD5A1 (11742802_a_at) / RFU TPSAB1 /// TPSB2 (11721975_s_at) / Fold change /veh TPSAB1 /// TPSB2 (11721975_s_at) / RFU GSTM3 (11746129_a_at) / Fold change /veh GSTM3 (11746129_a_at) / RFU IL23R (11737362_x_at) / Fold change /veh IL23R (11737362_x_at) / RFU TMEM51 (11727254_a_at) / Fold change /veh TMEM51 (11727254_a_at) / RFU PIWIL2 (11732686_x_at) / Fold change /veh PIWIL2 (11732686_x_at) / RFU ORM1 (11744905_x_at) / Fold change /veh ORM1 (11744905_x_at) / RFU CCDC152 (11743942_at) / Fold change /veh CCDC152 (11743942_at) / RFU ECM1 (11717891_a_at) / Fold change /veh ECM1 (11717891_a_at) / RFU IL23R (11748794_a_at) / Fold change /veh IL23R (11748794_a_at) / RFU TNFAIP8L3 (11732012_x_at) / Fold change /veh TNFAIP8L3 (11732012_x_at) / RFU MBOAT4 (11741988_at) / Fold change /veh MBOAT4 (11741988_at) / RFU 11764193_at / Fold change /veh 11764193_at / RFU TMEM53 (11763286_at) / Fold change /veh TMEM53 (11763286_at) / RFU MAGEB2 (11727129_at) / Fold change /veh MAGEB2 (11727129_at) / RFU TMEM200A (11744735_a_at) / Fold change /veh TMEM200A (11744735_a_at) / RFU CCDC152 (11751479_a_at) / Fold change /veh CCDC152 (11751479_a_at) / RFU FAM211A (11726209_a_at) / Fold change /veh FAM211A (11726209_a_at) / RFU RGS16 (11746705_a_at) / Fold change /veh RGS16 (11746705_a_at) / RFU VCAN (11755009_s_at) / Fold change /veh VCAN (11755009_s_at) / RFU RHOB (11743442_s_at) / Fold change /veh RHOB (11743442_s_at) / RFU RGS16 (11720943_a_at) / Fold change /veh RGS16 (11720943_a_at) / RFU RGS16 (11720944_at) / Fold change /veh RGS16 (11720944_at) / RFU, VPS4B / Fold change vs veh, VPS4B / RFU, CREB1 / Fold change vs veh, CREB1 / RFU, DNAJC13 / Fold change vs veh, DNAJC13 / RFU, GNAQ / Fold change vs veh, GNAQ / RFU, CDK5R1 / Fold change vs veh, CDK5R1 / RFU, ZRANB3 / Fold change vs veh, ZRANB3 / RFU, CUL4A / Fold change vs veh, CUL4A / RFU, CCNY / Fold change vs veh, CCNY / RFU, UFL1 / Fold change vs veh, UFL1 / RFU, COG3 / Fold change vs veh, COG3 / RFU, DIAPH2 / Fold change vs veh, DIAPH2 / RFU, SKA2 / Fold change vs veh, SKA2 / RFU, AFF3 / Fold change vs veh, AFF3 / RFU, LMF1 / Fold change vs veh, LMF1 / RFU, IPO11 / Fold change vs veh, IPO11 / RFU, DFFB / Fold change vs veh, DFFB / RFU, FOXP1 / Fold change vs veh, FOXP1 / RFU, CARD8 / Fold change vs veh, CARD8 / RFU, STRN3 / Fold change vs veh, STRN3 / RFU, ADK / Fold change vs veh, ADK / RFU, RASSF2 / Fold change vs veh, RASSF2 / RFU, WIPF1 / Fold change vs veh, WIPF1 / RFU, LARP1B / Fold change vs veh, LARP1B / RFU, RASA1 / Fold change vs veh, RASA1 / RFU, RB1 / Fold change vs veh, RB1 / RFU, PPFIA1 / Fold change vs veh, PPFIA1 / RFU, MAT2A / Fold change vs veh, MAT2A / RFU, CCT5 / Fold change vs veh, CCT5 / RFU, WDR92 / Fold change vs veh, WDR92 / RFU, CUX1 / Fold change vs veh, CUX1 / RFU, TTC7A / Fold change vs veh, TTC7A / RFU, TMEM135 / Fold change vs veh, TMEM135 / RFU, DEPTOR / Fold change vs veh, DEPTOR / RFU, CPM / Fold change vs veh, CPM / RFU, DNAJB6 / Fold change vs veh, DNAJB6 / RFU, CACNA2D3 / Fold change vs veh, CACNA2D3 / RFU, DTX4 / Fold change vs veh, DTX4 / RFU, TFCP2 / Fold change vs veh, TFCP2 / RFU, GMCL1 /// GMCL1P1 / Fold change vs veh, GMCL1 /// GMCL1P1 / RFU, AEBP2 / Fold change vs veh, AEBP2 / RFU, SNHG1 /// SNORD22 /// SNORD25 /// SNORD26 /// SNORD27 /// SNORD28 /// SNORD29 /// SNORD31 / Fold change vs veh, SNHG1 /// SNORD22 /// SNORD25 /// SNORD26 /// SNORD27 /// SNORD28 /// SNORD29 /// SNORD31 / Fold change (Aza/veh), C12orf56 (ProbeSet 11735607_a_at) / Fold change (ACY-1035/veh), C12orf56 (ProbeSet 11735607_a_at) / Fold change (Aza/veh), FGFR1OP (ProbeSet 11751329_s_at) / Fold change (ACY-1035/veh), FGFR1OP (ProbeSet 11751329_s_at) / Fold change (Aza/veh), VPS36 (ProbeSet 11739960_a_at) / Fold change (ACY-1035/veh), VPS36 (ProbeSet 11739960_a_at) / RFU SYPL1 (11715823_x_at) / Fold change /veh SYPL1 (11715823_x_at) / RFU IGFBP7 (11715501_s_at) / Fold change /veh IGFBP7 (11715501_s_at) / RFU REEP3 (11722064_at) / Fold change /veh REEP3 (11722064_at) / RFU IGLL1 (11728026_x_at) / Fold change /veh IGLL1 (11728026_x_at): dose or concentration left out as unconfirmed. To be noted: ProbeSet 11721521_at; LIST B.

As to `Nc1ccc(-c2cccs2)cc1NC(=O)c1ccc2c(c1)cc(C1CC1)n2CCN1CCOCC1` [ACY-1035], the “RFU, ZDHHC17” value worked out at 49.20 RFU.

For the origin of these results see publication PMC5218480 (PLoS ONE, 2017).
